Results from patent US20020025940A1, “Methods and compositions for sensitive and rapid, functional identification of genomic polynucleotides and use for cellular assays in drug discovery” (Aurora Biosciences Corporation, priority 1997, published 2002).

Columns and labels:
Format in all cases: cell-based, human
[1] = system: BLEC Jurkat clones; test: Specificity of activated BLEC Jurkat clones, relative beta-lactamase activity; conditions: PMA 8 nM, Thaps 1 microM, CsA 100 nM, PHA 10 microgram/ml
Source text: (§1) Isolated clones from PHA-induced (Example 6) and PHA-repressed (Example 7) procedures described above were characterized to determine the specificity of their modulation and time required for induction or repression. Clones were stimulated with multiple activators or inhibitors over a one to twenty-four hour time interval.
(§2) In this study, PMA, which is a PKC activator, Thapsigargin which increases intracellular calcium, PHA which activates the T-cell receptor pathway, and cyclosporin A which is a clinically approved immunosuppressant that inhibits the Ca^2+ dependent phosphates calcineurin were investigated for their ability to modulate beta-lactamase expression in PHA induced and repressed BLEC clones.

[2] = system: clone C2 (3×NFAT response element linked to beta-lactamase, M1 muscurinic receptor); test: Relative beta-lactamase activity of control clone C2; conditions: PMA 8 nM, Thaps 1 microM, CsA 100 nM, PHA 10 microgram/ml
Source text: as §1, §2

[3] = system: induced BLEC Jurkat clones; test: Characterization of induced BLEC Jurkat clones, change in 460/530 ratio; conditions: PHA 10 microgram/ml, Thaps 1 microM, PMA 8 nM, Anti-CD3 2 microgram/ml
Source text: These clones represent cells in which the trapping construct had integrated into a gene up regulated by PHA (T-cell) activation. Thus, these cells report the transcriptional activation of a gene upon cellular activation. Individual clones were identified and isolated by FACS using CCF2/AM to detect beta-lactamase activity. This clone isolation method, the induced sorting paradigm, used three sequential and independent stimulation and sorting protocols. […] These control cells were all green.
These isolated clones were expanded and tested for PHA inducibility by microscopic inspection with and without PHA stimulation in the presence of CCF2/AM. A total of fifty-five PHA inducible clones were identified using this procedure. The PHA inducibility for these clones ranged from a 1.5 to 40 fold change in the 460/530 ratio as compared to unstimulated control cells. Genomic Southern analysis using a DNA probe encoding beta-lactamase established that these clones represented 34 independent stable vector integration events. A list of clones obtained by the methods of the present invention and their characteristics is provided below in Table 6 and Table 7.
In addition to PHA inducible clones, Phobol 12-myristate 13-acetate (PMA) (Calbiochem), Thapsigargin (Thaps) (Calbiochem), and PMA+Thaps inducible clones were isolated using the general procedure set forth above using the indicated inducer rather than PHA. PMA is a specific activator of PKC (protein kinase C) and Thaps is a specific activator of intracellular calcium ion release (Thaps). These clones were isolated using three rounds of FACS using the general procedures described for the PHA inducible clones in Example 5. In such instances, other stimulants were substituted for PHA. PMA was provided at 8 nM, Thaps was provided at 1 microM. When these two stimulants were combined, their concentration was not changed. […] By using varied selection conditions, it is possible to isolate functionally distinct clones downstream of the desired signaling target.
Table 7 and Table 8 provide data similar to that provided in Table 5 for all of the clones obtained by the methods of Examples 5 to 7.

C/C=C(/C)C(=O)O[C@H]1C(C)=C2[C@H]([C@@H]1OC(=O)CCCCCCC)[C@@](C)(OC(C)=O)C[C@H](OC(=O)CCC)[C@@]1(O)[C@H]2OC(=O)[C@@]1(C)O [Thaps, Thapsigargin]
1-2: Change in 460/530 ratio in the indicated clone by the following activator ([3]; clone J83PI2) | Change in 460/530 ratio in the indicated clone by the following activator ([3]; clone J83PI8) | Change in 460/530 ratio in the indicated clone by the following activator ([3]; clone J83PI16) | Change in 460/530 ratio in the indicated clone by the following activator ([3]; clone J83PI19) | Change in 460/530 ratio in the indicated clone by the following activator ([3]; clone J97PI3) | Change in 460/530 ratio in the indicated clone by the following activator ([3]; clone J97PI4) | Change in 460/530 ratio in the indicated clone by the following activator ([3]; clone J325B11) | Change in 460/530 ratio in the indicated clone by the following activator ([3]; clone J326C9)
3-4: Change in 460/530 ratio in the indicated clone by the following activator ([3]; clone J83PI1) | Change in 460/530 ratio in the indicated clone by the following activator ([3]; clone J83PI4) | Change in 460/530 ratio in the indicated clone by the following activator ([3]; clone J97PI1) | Change in 460/530 ratio in the indicated clone by the following activator ([3]; clone J97PI8) | Change in 460/530 ratio in the indicated clone by the following activator ([3]; clone J97PI10) | Change in 460/530 ratio in the indicated clone by the following activator ([3]; clone J97PI14) | Change in 460/530 ratio in the indicated clone by the following activator ([3]; clone J97PI15) | Change in 460/530 ratio in the indicated clone by the following activator ([3]; clone J97PI18) | Change in 460/530 ratio in the indicated clone by the following activator ([3]; clone J97PI24) | Change in 460/530 ratio in the indicated clone by the following activator ([3]; clone J97PI116) | Change in 460/530 ratio in the indicated clone by the following activator ([3]; clone J389PM2) | Change in 460/530 ratio in the indicated clone by the following activator ([3]; clone J389PM5) | Change in 460/530 ratio in the indicated clone by the following activator ([3]; clone J389PM8) | Change in 460/530 ratio in the indicated clone by the following activator ([3]; clone J389PTt) | Change in 460/530 ratio in the indicated clone by the following activator ([3]; clone J389TI4)
85%: Relative Beta-Lactamase Activity of the Clone by the Indicated Stimulus After 24 hours (% of maximum activated stimuli) ([1]; clone J83 97-PPTR2 (repressed paradigm))
0: Change in 460/530 ratio in the indicated clone by the following activator ([3]; clone J326D4)
5-7: Change in 460/530 ratio in the indicated clone by the following activator ([3]; clone J97PI22)
5-6: Change in 460/530 ratio in the indicated clone by the following activator ([3]; clone J83PI9) | Change in 460/530 ratio in the indicated clone by the following activator ([3]; clone J97PI11) | Change in 460/530 ratio in the indicated clone by the following activator ([3]; clone J97PI12) | Change in 460/530 ratio in the indicated clone by the following activator ([3]; clone J97PI13)
10: Change in 460/530 ratio in the indicated clone by the following activator ([3]; clone J389PT4)
7-8: Change in 460/530 ratio in the indicated clone by the following activator ([3]; clone J83PI6) | Change in 460/530 ratio in the indicated clone by the following activator ([3]; clone J83PI18) | Change in 460/530 ratio in the indicated clone by the following activator ([3]; clone J97PI17)
0%: Relative Beta-Lactamase Activity of the Clone by the Indicated Stimulus After 24 hours (% of maximum activated stimuli) [2]
2-3: Change in 460/530 ratio in the indicated clone by the following activator ([3]; clone J83PI13) | Change in 460/530 ratio in the indicated clone by the following activator ([3]; clone J97PI19) | Change in 460/530 ratio in the indicated clone by the following activator ([3]; clone J97PI20) | Change in 460/530 ratio in the indicated clone by the following activator ([3]; clone J97PI21) | Change in 460/530 ratio in the indicated clone by the following activator ([3]; clone J389PM3) | Change in 460/530 ratio in the indicated clone by the following activator ([3]; clone J389PM7) | Change in 460/530 ratio in the indicated clone by the following activator ([3]; clone J389TI1)
4-6: Change in 460/530 ratio in the indicated clone by the following activator ([3]; clone J97PI6)
2: Change in 460/530 ratio in the indicated clone by the following activator ([3]; clone J83PI7) | Change in 460/530 ratio in the indicated clone by the following activator ([3]; clone J83PI14) | Change in 460/530 ratio in the indicated clone by the following activator ([3]; clone J83PI15)
1-2%: Relative Beta-Lactamase Activity of the Clone by the Indicated Stimulus After 24 hours (% of maximum activated stimuli) ([1]; clone J32-6D4)
5%: Relative Beta-Lactamase Activity of the Clone by the Indicated Stimulus After 24 hours (% of maximum activated stimuli) ([1]; clone J389-PTI4)
100%: Relative Beta-Lactamase Activity of the Clone by the Indicated Stimulus After 24 hours (% of maximum activated stimuli) ([1]; clone J83-PI9) | Relative Beta-Lactamase Activity of the Clone by the Indicated Stimulus After 24 hours (% of maximum activated stimuli) ([1]; clone J83-PTI8)
6-7: Change in 460/530 ratio in the indicated clone by the following activator ([3]; clone J83PI3)
1.9: Change in 460/530 ratio in the indicated clone by the following activator ([3]; clone J97PI5)
4-5: Change in 460/530 ratio in the indicated clone by the following activator ([3]; clone J97PI7) | Change in 460/530 ratio in the indicated clone by the following activator ([3]; clone J97PI9) | Change in 460/530 ratio in the indicated clone by the following activator ([3]; clone J97PI23)
